Values joined by “and” are separate entries in the source; they are usually repeats but may differ in a detail not shown here. Identical values can stand only once.
Tests used:
YAP/TEAD = details: literature; cited from earlier work
TEAD [1] = details: literature; cited from earlier work
[2] = AML12 normal liver cell growth inhibition (CCK8); format: cell-based; details: mouse, aml12 cells
Huh7 cells = assay: Huh7 cell proliferation assay (CCK8); format: cell-based, human; details: Homo sapiens, Huh-7, 72 h; 3 days; CCK8; mean ± SD of three independent experiments; read-out: Cell proliferation assay IC50, Huh7
Procedure: CCK8 assay kit was used to determine antiproliferative activity of synthesized compounds against Huh7 cell line. First, Huh7 cells were seeded into 96-well plates at a density of 3000 cells/well and incubated overnight. Cells were then co-incubated with compounds at 8 concentrations for 72 h. Then, the cell proliferation was determined by the CCK8 kit according to the standard protocol. Experiments were performed in triplicate.

TEADs = assay: TEAD-specific 8×GTIIC-luciferase reporter assay; format: cell-based; details: for inhibition at 10 µM: 8×GTIIC-luciferase, read-out: Luciferase reporter assay inhibitory rate; for IC50: dose response, read-out: TEADs transcription inhibition IC50, luciferase reporter assay
Procedure: A series of compounds featuring a chloromethyl ketone moiety were synthesized (Schemes 1-4). The inhibitory rate of this series of compounds was tested using 8×GTIIC-luciferase reporter assay at 10 μM.
Next, the inhibition of TEAD transcription activity of compounds was tested varying the dosage using the 8×GTIIC-luciferase reporter assay. […] The aim was to determine whether its inhibition of TEAD transcription can lead to downregulation of the YAP-TEAD target genes. CTGF is one of the best characterized (bona fide) target gene of YAP and TAZ.
To further investigate the mechanism of the inhibitory effect of compounds in Huh7 cells, TEADs specific luciferase reporter assays were performed with compounds 22 and 12 at several concentrations. […] TEAD downstream gene expression patterns were evaluated in liver cancer cells Huh7, which has been evidenced with relative high expression of YAP and TEAD2.
HEK 293T cells were plated at 2×10^4 cells/well in a 96 well microplate and were transfected with 50 ng of 8×GTIIC-luciferase plasmid (Addgene #34615) and 0.5 ng of pRL-CMV (Promega #E226A) by using lipofectamine 3000 (Life Technologies #L3000). The 8×GTIIc-luciferase reporter is a Yap/Taz-activity reporter containing eight TEAD consensus binding sequences. After 6 h, transfected cells were treated with various concentrations of compounds or DMSO control. Luciferase signals were measured using the Dual Luciferase Reporter Assay System (Promega, E1960) according to the manufacturer's instructions. Experiments were performed in triplicate and repeated at least three times.

TEAD [3] = assay: Fluorescence polarization assay; format: binding; details: FIG. 1D
Source text: FIGS. 1A-1D depict discovery of C-3 as moderate TEAD transcription inhibitor. (FIG. 1A) The flowchart of the docking-based virtual screening campaign. (FIG. 1B) Predicted binding mode of C-3 in TEAD2 lipid binding pocket.

CTGF [4] = assay: CTGF protein expression by western blotting in Huh7 cells; format: cell-based, human; details: dose-dependent
Procedure: Treated Huh7 cells were harvested and lysed in cold RIPA lysis buffer containing […] and phosphatase inhibitors. The protein concentrations were determined using the BCA Protein Assay kit. The prepared protein samples were loaded on and separated by 10% SDS-PAGE gel and then were transferred to PVDF membrane. Blots were blocked for 1 h at RT in blocking buffer and incubated with corresponding primary antibodies: anti-CTGF (ab227180), and anti-GAPDH (ab9485), at 4 ° C overnight. Then the blots were incubated with HRP-conjugated anti-rabbit secondary antibody in blocking buffer for 1.5 h at RT. The membranes were imaged with ChemiDoc MP imaging system.

AML12 cells = assay: AML12 normal liver cell growth inhibition (CCK8); format: cell-based; details: for Inhibitory rate, AML12 (inhibitory percentage of AML12 cell growth): 10 μM, 3 days
CTGF [5] = assay: CTGF mRNA expression by RT-qPCR in Huh7 cells; format: cell-based, human; details: dose-dependent
Procedure: Huh7 and HepG2 liver cancer cells were seeded at 1×10^6 cells/dish and allowed to adhere overnight. The cells were then treated with indicated doses of compounds in medium for 24 hours. The cells were then harvested, and total RNA was purified using the Aurum total RNA mini kit (Bio-Rad #732-6820) according to the manufacturer's instructions. Complementary DNA was synthesized from 500 ng total RNA template by iScript reverse transcription kit (Bio-Rad #1725037) according to the manufacturer's instructions. Real-time PCR reactions utilized 60 ng cDNA and PrimePCR primers from Bio-Rad (Unique Assay ID: human GAPDH-qHsaCEP0041396, human CTGF-qHsaCEP0024255, human CYR61-qHsaCEP0024230) designed for SYBR Green gene expression analysis (Bio-Rad #1726270). All reactions were carried out in triplicate using Quant Studio 3 PCR system (Applied Biosystems). Relative gene expression level was quantified via ΔΔCt method by using GAPDH as an endogenous reference.

YAP [6] = details: literature; cited from earlier work
YAP [7] = details: literature; cited from earlier work; remark: listed apart in the source
YAP-TEAD = details: all four TEAD family members; cited from earlier work
Huh7 xenograft = assay: Huh7 mouse xenograft model, antitumor efficacy; format: in vivo, NSG mouse; details: Sorafenib 100 mg/kg oral every three days for 24 days
Procedure: Based on the favorable in vitro potency and low toxicity, the in vivo antitumor efficacy of compound 22 was further evaluated in the NSG mouse (NOD scid gamma mouse) xenograft model from human Huh7 cells. Sorafenib, the first-line treatment for primary hepatocellular carcinoma (HCC) patients, served as the control. Compound 22 was tested as a monotherapy and in combination with Sorafenib.
The animals were administered 10 mg/kg of compound 22 twice a week for four weeks via intraperitoneal (IP) injection.
The mice were administered 50 mg/kg of compound 22 every three day for 24 days via intraperitoneal (IP) injection. Sorafenib was administered orally at a dose of 100 mg/kg following the same schedule.
Tumors were implanted by subcutaneous injection of 5×10^6 Huh7 cells in 100 μL of PBS containing 10% matrix gel (Coming, NY, USA), into the right flank of the mouse. When the tumor volume reached about 85 mm^3, mice were randomized into the vehicle control group (n=5) and a treatment group (n=5). The vehicle group (n=5) received the vehicle only (50% phosal 50 PG, 45% miglyol 810 N and 5% polysorbate 80), while the treatment group (n=5) was given compound 22 (50 mg/kg in 50% phosal 50 PG, 45% miglyol 810 N and 5% polysorbate 80) via IP injection every three days. After 24 days, mice were euthanized. Sorafenib (100 mg/kg, every three day) was dissolved in 75% Ethanol and Cremophor EL (1:1) and administered directly into the animals' stomachs using a gastric probe. Tumor size and body weight were measured every 3 days, and tumor volume was estimated using the formula volume=½×length×width^2. Tumor growth inhibition value (TGI) was calculated as TGI (%) [1−Vt/Vc]×100, where Vc and Vt were […].

Row | IC50 (Huh7 cells) | IC50 (TEADs) | Compound | inhibition at 10 µM (TEADs) | CTGF protein expression, Huh7 (CTGF [4]) | Inhibitory rate, AML12 (inhibitory percentage of AML12 cell growth) (AML12 cells) | CTGF mRNA expression, Huh7 (CTGF [5]) | other results
1 | – | – | Cc1ccc2c(c1)c1c3n2CCNC3CCC1 (centres unmarked) [CPD3.1] | – | – | – | – | YAP/TEAD interaction, co-IP (YAP/TEAD): disrupt YAP/TEAD interaction; TEAD reporter activity (TEAD [1]): inhibits TEAD reporter activity
2 | 32.5 µM | 5 µM | Clc1cc2[nH]ccc2cc1OCc1ccccc1 [Compound C-3] | 68.3% | – | – | – | inhibition at 72 h, 10 µM ([2]; 10 μM, 3 days, read-out: Inhibitory rate, AML12 (inhibitory percentage of AML12 cell growth)): 20%; Fluorescence polarization, inhibition (TEAD [3]): inhibition
3 | – | – | COc1ccc(-c2cc(-c3ccccc3)nc3c2CC(=O)Nc2ccccc2-3)cc1OC [NSC682769] | – | – | – | – | YAP binding (YAP [6]): directly bind to YAP; YAP expression (YAP [7]): attenuates YAP expression; Association of YAP with TEAD family members (YAP-TEAD): inhibit its association with all four TEAD family members
4 | – | – | CNC(=O)c1cc(Oc2ccc(NC(=O)Nc3ccc(Cl)c(C(F)(F)F)c3)cc2)ccn1 [Sorafenib, reference compound] | – | – | – | – | Tumor growth inhibition (TGI) rate (Huh7 xenograft): 76%
5 | 1.2 ± 0.3 µM | 0.629 µM | O=C(CCl)NCc1c[nH]c2cc(Cl)c(OCc3ccccc3)cc12 [Compound 12, N-((5-(benzyloxy)-6-chloro-1H-indol-3-yl)methyl)-2-chloroacetamide] | 97.8% | suppression of CTGF protein production | 34.2% | suppressed | –

Row | Compound | IC50 (Huh7 cells) | IC50 (TEADs) | inhibition at 10 µM (TEADs) | CTGF protein expression, Huh7 (CTGF [4]) | Inhibitory rate, AML12 (inhibitory percentage of AML12 cell growth) (AML12 cells) | CTGF mRNA expression, Huh7 (CTGF [5]) | other results
6 | O=C(CCl)c1c[nH]c2cc(Cl)c(OCc3ccc4ccccc4c3)cc12 [Compound 2, 2-chloro-1-(6-chloro-5-(naphthalen-2-ylmethoxy)-1H-indol-3-yl)ethan-1-one] | 2.3 ± 0.6 µM | 0.89 µM and 0.87 µM | 95.6% | dose-dependent decrease | 32.1% | significantly decreased | inhibition at 10 µM ([2]; "at 10 M", read-out: Inhibitory rate of AML cells): 32%; Toxicity towards normal liver cell line AML12 (AML12 cells): least toxic of the covalent compounds; TEAD transcription inhibition, luciferase reporter (TEADs; varying dosage, FIGS. 3A-3B): potent inhibition activity
